Results reported in ChEMBL document CHEMBL3739277, “Design, synthesis, and antibacterial evaluation of novel azolylthioether quinolones as MRSA DNA intercalators” (2015).
≈ marks a conversion by molar mass, not a printed value. Calls of active or inactive are those of the source. No cut-off for these calls is given here.

Tests used:
Saccharomyces cerevisiae = assay: Antifungal activity against Saccharomyces cerevisiae ATCC9763 assessed as growth inhibition incubated at 35 degC for 24 hrs by micro broth dilution method; type: functional; details: ATCC9763, 24 h
[1] = Antibacterial activity against Bacillus proteus ATCC13315 assessed as growth inhibition incubated at 37 degC for 24 hrs by micro broth dilution method; type: functional; details: ATCC13315, 24 h
Staphylococcus aureus [2] = assay: Binding affinity to methicillin-resistant Staphylococcus aureus DNA assessed as induction of DNA intercalation by measuring as 1:1 compound-DNA complex formation in presence of Cu2+ ions by fluorescence spectroscopy
Staphylococcus aureus [3] = assay: Binding affinity to methicillin-resistant Staphylococcus aureus DNA assessed as induction of DNA intercalation in presence of potassium iodide by fluorescence spectroscopy based Stern-Volmer plot
[4] = Binding affinity to Cu2+ ion assessed as 1:1 compound-Cu2+ complex formation by fluorescence spectroscopy
Bacillus subtilis = assay: Antibacterial activity against Bacillus subtilis ATCC6633 assessed as growth inhibition incubated at 37 degC for 24 hrs by micro broth dilution method; type: functional; details: ATCC6633, 24 h
Pseudomonas aeruginosa [5] = assay: Potency index, ratio of clinafloxacin MIC to compound MIC for Pseudomonas aeruginosa ATCC27853; type: functional
Pseudomonas aeruginosa [6] = assay: Potency index, ratio of chloramphenicol MIC to compound MIC for Pseudomonas aeruginosa ATCC27853; type: functional
[7] = Antibacterial activity against Eberthella typhosa ATCC14028 assessed as growth inhibition incubated at 37 degC for 24 hrs by micro broth dilution method; type: functional; details: ATCC14028, 24 h
Cyberlindnera jadinii = assay: Antifungal activity against Candida utilis ATCC9950 assessed as growth inhibition incubated at 35 degC for 24 hrs by micro broth dilution method; type: functional; details: Williopsis jadinii, ATCC9950, 24 h
Escherichia coli = assay: Antibacterial activity against Escherichia coli JM109 assessed as growth inhibition incubated at 37 degC for 24 hrs by micro broth dilution method; type: functional; details: JM109, 24 h
Staphylococcus aureus [8] = assay: Antibacterial activity against Staphylococcus aureus ATCC25923 assessed as growth inhibition incubated at 37 degC for 24 hrs by micro broth dilution method; type: functional; details: ATCC25923, 24 h
Micrococcus luteus = assay: Antibacterial activity against Micrococcus luteus ATCC4698 assessed as growth inhibition incubated at 37 degC for 24 hrs by micro broth dilution method; type: functional; details: ATCC4698, 24 h
Candida albicans = assay: Antifungal activity against Candida albicans ATCC10231 assessed as growth inhibition incubated at 35 degC for 24 hrs by micro broth dilution method; type: functional; details: ATCC10231, 24 h
[9] = Antifungal activity against Candida mycoderma ATCC9888 assessed as growth inhibition incubated at 35 degC for 24 hrs by micro broth dilution method; type: functional; details: Kregervanrija fluxuum
Staphylococcus aureus [10] = assay: Binding affinity to methicillin-resistant Staphylococcus aureus DNA assessed as induction of DNA intercalation by UV-visible spectroscopy
Pseudomonas aeruginosa [11] = assay: Antibacterial activity against Pseudomonas aeruginosa ATCC27853 assessed as growth inhibition incubated at 37 degC for 24 hrs by micro broth dilution method; type: functional; details: ATCC27853, 24 h
Aspergillus flavus = assay: Antifungal activity against Aspergillus flavus ATCC204304 assessed as growth inhibition incubated at 35 degC for 24 hrs by micro broth dilution method; type: functional; details: ATCC204304, 24 h
Staphylococcus aureus [12] = assay: Antibacterial activity against methicillin resistant Staphylococcus aureus N315 assessed as growth inhibition incubated at 37 degC for 24 hrs by micro broth dilution method; type: functional; details: N315, 24 h

SMILES: Cn1ccnc1SCC(O)CNC1CCN(c2c(F)cc3c(=O)c(C(=O)O)cn(C4CC4)c3c2Cl)C1 (centres undefined)
- MIC80 (Saccharomyces cerevisiae): 16 mg/L (≈ 29.8 µM)
- MIC [1]: 0.5 mg/L (≈ 0.933 µM)
- Activity (Staphylococcus aureus [2]): Active
- Activity (Staphylococcus aureus [3]): Active
- Activity [4]: Active
- MIC (Bacillus subtilis): 0.5 mg/L (≈ 0.933 µM)
- Ratio (Pseudomonas aeruginosa [5]): 4
- Ratio (Pseudomonas aeruginosa [6]): 64
- MIC [7]: 0.5 mg/L (≈ 0.933 µM)
- MIC80 (Cyberlindnera jadinii): 32 mg/L (≈ 59.7 µM)
- MIC (Escherichia coli): 1 mg/L (≈ 1.87 µM)
- MIC (Staphylococcus aureus [8]): 0.5 mg/L (≈ 0.933 µM)
- MIC (Micrococcus luteus): 0.5 mg/L (≈ 0.933 µM)
- MIC80 (Candida albicans): 0.5 mg/L (≈ 0.933 µM)
- MIC80 [9]: 1 mg/L (≈ 1.87 µM)
- Activity (Staphylococcus aureus [10]): Dose-dependent effect
- MIC (Pseudomonas aeruginosa [11]): 0.25 mg/L (≈ 0.466 µM)
- MIC80 (Aspergillus flavus): 32 mg/L (≈ 59.7 µM)
- MIC (Staphylococcus aureus [12]): 0.25 mg/L (≈ 0.466 µM)
